Test results as given in paper PMC7772889, “Integrating biokinetics and in vitro studies to evaluate developmental neurotoxicity induced by chlorpyrifos in human iPSC-derived neural stem cells undergoing differentiation towards neuronal and glial cells” (Reproductive Toxicology (Elmsford, N.y.), 2020).

What was measured:
[1] = prenatal exposure to CPF; cited from earlier work
[2] = test system: hiPSC-derived NSCs undergoing differentiation towards neurons and astrocytes; experiment: In vitro biokinetics of CPF and metabolites in medium, cells and plastic (HPLC-UV)
Experimental: The nominal concentration causing 5 % decrease of viability (IC5) was previously identified, extrapolating a dose response curves obtained with six CPF nominal concentrations (0.49, 1.95, 7.81, 31.25, 125, and 500 μM) vs solvent control (0.1 % DMSO) after 14-day treatment by means of resazurin test (CellTiter-Blue® Reagent).
CPF stock solutions were prepared in DMSO and stored in glass at −20 °C until the beginning of each experiment. Freshly prepared treatment solutions were obtained after the dilution of stock solutions in a ratio of […] in serum-free culture medium, keeping DMSO concentration at 0.1 %. Aliquots of the stock and daily treatment solutions (considered as the starting solutions) were stored at −80 °C until HPLC analysis.
Cells (about 21,000 cells/cm^2), seeded on 6 well PDL- and reduced growth factor Matrigel coated plates, were treated during the differentiation process, starting from day 7 of differentiation up to day 21, with treatment/medium refreshed twice a week (Fig. 2). Exposure to CPF of cells or pre-coated wells (without cells) was initiated by adding 2 mL per well of the corresponding treatment solutions or the vehicle (control wells). Four biological replicates were carried out.
A first set of experiments was used to fine tune the experimental conditions, including time points and exposure conditions, taking into account possible metabolism, bioaccumulation and/or physical sequestration processes. All the fractions (i.e., medium, cells, plastic and matrix-bound fractions) were collected, at the first and last day of treatment, at different time points (i.e., 1, 3, 6, 24 h) selected on the basis of the intrinsic features of the compound and the cellular model. At each time point, the medium was transferred into amber glass vials and stored at −80 °C until HPLC analysis. Cells were washed twice with PBS (2 mL/well); to avoid dehydration of the cells, an aliquot of PBS was kept in each well. PBS was then removed, cells were scraped from the wells in 250 μL MeOH, additional 100 μL MeOH were added for washing and all the content was transferred into amber glass vials. The same procedure was applied also to the wells used for measuring matrix-bound material (without cells). Cells were then sonicated until they were fully homogenized (about 15 min). All fractions, including DMSO from control wells and MeOH used to measure possible plastic binding, were stored at −80 °C until HPLC analysis. Four biological replicates were carried out.
All samples from kinetic experiments were analysed using high-performance liquid chromatography (HPLC), as previously described, to quantify CPF and its metabolites. Prior to analysis, one volume of the collected medium samples was mixed with three volumes of MeOH. All the mixtures, including cell and matrix-bound samples, were vortexed for 30 s and then centrifuged (Eppendorf 5417R; 4 °C, 2500 rpm) for 10 min. Preliminary assays were conducted to evaluate CPF and its metabolite recovery after the solvent extraction procedure from each type of sample. […] Plastic-bound fraction was injected as such.
The HPLC system included a PerkinElmer Series 200 analytical pump, a Restek™ Pinnacle ODS Amine C18 column, a PerkinElmer LC 235 Diode Array Detector and the PerkinElmer Totalchrom™ 3.1.2 software for data acquisition and evaluation. For analysing CPF, CPFO and TCP, a gradient elution was applied at a flow rate of 1.0 mL/min, starting at 80:20 % methanol /buffer (Tris /HCl 50 mM EDTA 1 mM pH 7.4) and reaching after 4 min a percentage of 70:30 (v/v), respectively, maintained for 16 min. Then, the gradient returned to the initial concentration before the next sample was injected.

[3] = cited from earlier work

For `CCOP(=O)(O)OCC` [diethylphosphate], the “level in human postpartum meconium” value [1] is listed as 0.80 to 3.20 µg/g.

In the case of `Oc1nc(Cl)c(Cl)cc1Cl` [TCP, 3,5,6-trichloro-2-pyridinol], the “TCP in the intracellular compartment or adsorbed to the plastic” value ([2]; any time point) is reported as “No TCP was detectable”, the “TCP present in the medium” value ([2]; first day of treatment with 21 μM CPF) is reported as 6–18% and the “TCP present in the medium” value ([2]; last day of treatment with 21 μM CPF) is reported as 7–14%.

For `CCOP(O)(=S)OCC` [diethylthiophosphate], the “level in human postpartum meconium” value [1] is given as 2.0 to 5.6 µg/g.

In the case of chlorpyrifos-oxon [CPFO], the “CPFO adsorbed to the plastic” value ([2]; any time point) is reported as “no CPFO adsorbed to the plastic was detectable” and the CPFO detection ([2]; last day of treatment) is reported as “no longer detectable”.

For `CCCCc1oc2ccccc2c1C(=O)c1cc(I)c(OCCN(CC)CC)c(I)c1` [amiodarone, reference compound], the “log Kow” value [3] is given as 7.6.
